Laboratory results published in patent US11882828B2, “Mosquito vector control compositions, methods and products utilizing same” (priority 2015, dated 2024).

Columns and labels:
[1] = system: An. Gambiae Tiassalé; assay: Example B4: cross resistance study, 6-well plate; type: in vivo; conditions: for Knockdown: after 60 minutes, Tiassalé
Method: (§1) In each study, a set of plates were infested with a known insecticide susceptible strain of mosquitoes from the same genera as the resistant strains.
(§2) Assessment of the knockdown after 60 minutes and mortality after 24 hours was carried out. Each treatment was replicated a minimum of four times, with the mean knockdown or mortality recorded.
(§3) A comparison of the knockdown and mortality of the resistant strain of mosquitoes was made to that of the susceptible to identify evidence of cross resistance.

[2] = system: An. Arabiensis Ndjamina; assay: Example B4: cross resistance study, 6-well plate; type: in vivo
Method: as §1, §2, §3

[3] = system: An. stephensi; assay: Example B4: cross resistance study, 6-well plate; type: in vivo; conditions: for Knockdown: after 60 minutes, An. stephensi
Method: as §1, §2, §3

[4] = system: An. Gambiae Kisumu rdl; assay: Example B4: cross resistance study, 6-well plate; type: in vivo; conditions: for Knockdown: after 60 minutes, Kisumu rdl
Method: as §1, §2, §3

[5] = system: An. Gambiae Kisumu sus; assay: Example B4: cross resistance study, 6-well plate; type: in vivo; conditions: for Knockdown: after 60 minutes, Kisumu sus
Method: as §1, §2, §3

[6] = system: Ae. aegypti Caymon; assay: Example B4: cross resistance study, 6-well plate; type: in vivo; conditions: for Knockdown: after 60 minutes, Caymon
Method: as §1, §2, §3

[7] = system: An. Arabiensis Moz sus; assay: Example B4: cross resistance study, 6-well plate; type: in vivo; conditions: for Knockdown: after 60 minutes, Moz sus
Method: as §1, §2, §3

[8] = system: Ae. Aegypti New Orleans; assay: Example B4: cross resistance study, 6-well plate; type: in vivo; conditions: for Knockdown: after 60 minutes, New Orleans
Method: as §1, §2, §3

[9] = system: Anopheles stephensi; assay: Example B7: evaluation of insecticide impregnated polymer surfaces; type: in vivo; conditions: AI content 2 wt %; for knock-down: after one hour; for mortality: 24 hours after exposure
Excerpt: (§4) Preparation of polymeric sheets: Certain methoxyacrylate were Impregnated into three polymers: LDPE (low density polyethylene), HDPE (high density polyethylene) and PP (polypropylene) in different concentrations by mixing the respective polymer with a compound at high temperatures and the resultant polymeric material were then mould into thin discs or plaques.
(§5) Twenty four hours prior to the relevant assessment intervals, three to five day old non-blood fed adult mosquitoes were taken from the culture and lightly anaesthetised with carbon dioxide. Ten females were selected and placed in a 250 ml plastic cup, retained with a net lid, provided with a 10% sucrose solution soaked in a cotton wool bung and held under culturing environmental conditions.
(§6) After twenty four hours, impregnated polymer sheets (measuring about 150 mm in diameter and about 0.1 mm in thickness) were removed from storage and wrapped around the glazed side of an 11 cm ceramic tile and held in place with an elastic band. A cup of the pre-selected mosquitoes were again lightly anaesthetised with carbon dioxide and transferred from the holding cup to the base of a 9 cm plastic Petri dish. The relevant impregnated polymer sheet was placed over the Petri dish and held in place with an elastic band. Once the mosquitoes had recovered from the anaesthetic, ca. 1 minute, the impregnated polymer sheet was placed on a holding rack, such that treated side was at an angle of […] to the horizontal.
(§7) After one hour an assessment of mosquito knockdown was made. A mosquito was said to be knocked down if it was unable to right itself once it had fallen over. The mosquitoes were lightly anaesthetised again, and removed from the Petri dish exposure chamber and returned to the holding cups. The mosquitoes were supplied with a 10% sucrose solution soaked in a cotton wool bung and held under culturing environmental conditions. An assessment of mortality was made 24 hours after exposure. A mosquito was said to be dead if it is unable to right itself once it had fallen over.

[10] = system: Aedes aegypti; assay: as above; type: in vivo; conditions: AI content 2 wt %, polymer 4 to 6 weeks old; for knock-down: after one hour; for mortality: 24 hours after exposure
Excerpt: as §4, §5, §6, §7

[11] = system: An. Gambiae Tiassalé; assay: Example B5: bottle based cross resistance study (CDC bottle assay); type: in vivo; conditions: for Knockdown (%) at 15 mins / Knockdown (%) at 60 mins: 20 ppm, bottle, Tiassalé; for mortality at 20 ppm: Anopheles gambiae
Method: (§8) Based on the “CDC bottle assay” (described at http://www.cdc.gov/malaria/resources/pdf/fsp/ir_manual/ir_cdc_bioassay_en.pdf) 1 ml of ethanol containing a test compound at a defined concentration was added to a 250 ml glass bottle and the bottles were placed on a rolling table to coat the inner surfaces as the solvent evaporated. Once dry, twenty five non-blood fed adult female mosquitoes of the appropriate species and strains (each three day old) were aspirated from the stock culture and gently blown into the exposure bottles. The lid of the bottle was replaced and the bottle placed upright out of direct sun light under standard culture conditions, nominally 28C and 60-80% relative humidity.
(§9) A stopwatch was started, and the assessment of the knock-down were made after 15 minutes and 60 minutes. A mosquito was said to be knocked down if it was unable to stand, following the CDC definition. The bottles were replaced in an upright position when not being assessed.
(§10) After one hour the mosquitoes were carefully removed from the bottle with an aspirator and placed in a recovery cup. The mosquitoes were supplied with a 10% sucrose solution on a cotton wool bung, and stored under culture conditions. Assessments of the mortality were made after 24 hours.
(§11) Each treatment was replicated a minimum of four times, with the mean knockdown or mortality recorded. In each study, a set of bottles was infested with a known insecticide susceptible strain of mosquitoes from the same genera as the resistant strains.

[12] = system: An. stephensi; assay: as above; type: in vivo; conditions: for Knockdown (%) at 15 mins / Knockdown (%) at 60 mins: 20 ppm, bottle, An. stephensi; for mortality at 20 ppm: Anopheles stephensi
Method: as §8, §9, §10, §11

[13] = system: An. Gambiae Kisumu sus; assay: as above; type: in vivo; conditions: for mortality at 20 ppm / mortality at 25 ppm: Anopheles gambiae; for mortality at 25 ppm: 24 h
Method: as §8, §9, §10, §11

[14] = system: Anopheles stephensi (Indian malaria mosquito); assay: whole plant or invertebrate; conditions: Anopheles stephensi
Method: […] Once the deposits were dry, five non-blood fed adult female Anopheles stephensi (between two to five days old) were added to each well, and sustained with a 10% sucrose solution in a cotton wool plug. Assessment of the knockdown after 1 hour, and mortality after 48 hours was carried out.
(§12) In case of multiple tests, the mean value is reported.

[15] = system: Aedes aegypti (Yellow fever mosquito); assay: whole plant or invertebrate; conditions: Aedes aegypti
Method: […] Once the deposits were dry, five non-blood fed adult female Aedes aegypti (between two to five days old) were added to each well, and sustained with a 10% sucrose solution in a cotton wool plug. Assessment of the knockdown after 1 hour, and mortality after 48 hours was carried out.
as §12

[16] = system: Anopheles stephensi; assay: whole plant or invertebrate; conditions: Anopheles stephensi, 48 h
In short: (§13)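 Non-blood-fed adult females (2–5 days old), ten per well, were placed on dried ethanol deposits of the test compound at a defined concentration and fed 10% sucrose. Mortality was scored at 48 hours as the mean of two replicates.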

[17] = system: Aedes aegypti; assay: whole plant or invertebrate; conditions: Aedes aegypti, 48 h
In short: as §13

[18] = system: VK7; assay: Example B5: bottle based cross resistance study (CDC bottle assay); type: in vivo; conditions: Anopheles coluzzii, 24 h, after 24 hours
Method: as §8, §9, §10, §11

[19] = system: FUMOZ; assay: as above; type: in vivo; conditions: Anopheles funestus, 24 h, 25 ppm, after 24 hours, FUMOZ
Method: as §8, §9, §10, §11

CCC(=N\OC)/C(C)=N/OCc1ccccc1/C(=C\OC)C(=O)OC [Compound 4, Methyl(E)-3-methoxy-2-[2-[[(E)-[(2E)-2-methoxyimino-1-methyl-butylidene]amino]-oxymethyl]phenyl]prop-2-enoate]
Knockdown ([1]; 2.00 ppm): 70% | mortality at 2 ppm ([1]; Anopheles gambiae, 24 h): 100% | Knockdown ([2]; 2.00 ppm, after 60 minutes, Ndjamina): 100% | mortality at 2 ppm ([2]; Anopheles arabiensis, 24 h): 100% | Knockdown ([3]; 2.00 ppm): 95% | mortality at 2 ppm ([3]; Anopheles stephensi, 24 h): 100% | Knockdown ([4]; 2.00 ppm): 30% | mortality at 2 ppm ([4]; Anopheles gambiae, 24 h): 100% | Knockdown ([5]; 2.00 ppm): 67% | mortality at 2 ppm ([5]; Anopheles gambiae, 24 h): 95% | Knockdown ([6]; 2.00 ppm): 45% | mortality at 2 ppm ([6]; Aedes aegypti, 24 h): 90% | Knockdown ([7]; 2.00 ppm): 0% | mortality at 2 ppm ([7]; Anopheles arabiensis, 24 h): 95% | Knockdown ([8]; 2.00 ppm): 75% | mortality at 2 ppm ([8]; Aedes aegypti, 24 h): 100% | knock-down ([9]; HDPE, polymer 4 to 6 weeks old): 93% | knock-down ([9]; HDPE, polymer 6 to 8 weeks old): 77% | knock-down ([9]; LDPE, polymer 4 to 6 weeks old): 87% | knock-down ([9]; LDPE, polymer 6 to 8 weeks old): 70% | knock-down ([9]; PP, polymer 4 to 6 weeks old): 100% | knock-down ([9]; PP, polymer 6 to 8 weeks old): 90% | knock-down ([10]; HDPE): 53% | knock-down ([10]; LDPE): 63% | knock-down ([10]; PP): 63% | Knockdown (%) at 15 mins [11]: 17% | Knockdown (%) at 60 mins [11]: 96% | mortality at 20 ppm [11]: 77% | Knockdown (%) at 15 mins [12]: 10% | Knockdown (%) at 60 mins [12]: 100% | mortality at 20 ppm [12]: 80% | Knockdown (%) at 15 mins ([13]; 20 ppm, bottle, Kisumu sus): 48% | Knockdown (%) at 60 mins ([13]; 20 ppm, bottle, Kisumu sus): 100% | mortality at 20 ppm [13]: 100% | pest or weed control at 20 ppm ([14]; 1 h, read-out: Knockdown): 80% | mortality at 20 ppm ([14]; 48 h): 100% | pest or weed control at 20 ppm ([15]; 1 h, read-out: Knockdown): 100% | mortality at 20 ppm ([15]; 48 h): 100% | mortality at 5 ppm [16]: 98% | mortality at 5 ppm [17]: 78%

CC1(C)C(C=C(Cl)Cl)C1C(=O)OCc1cccc(Oc2ccccc2)c1 (stereo not drawn) [Permethrin, reference compound]
Knockdown ([1]; 2.50 ppm): 5% | mortality at 2.5 ppm ([1]; Anopheles gambiae, 24 h): 14% | Knockdown ([3]; 2.50 ppm): 85% | mortality at 2.5 ppm ([3]; Anopheles stephensi, 24 h): 100% | Knockdown ([4]; 2.50 ppm): 100% | mortality at 2.5 ppm ([4]; Anopheles gambiae, 24 h): 100% | Knockdown ([5]; 2.50 ppm): 100% | mortality at 2.5 ppm ([5]; Anopheles gambiae, 24 h): 100% | Knockdown ([6]; 2.50 ppm): 0% | mortality at 2.5 ppm ([6]; Aedes aegypti, 24 h): 45% | Knockdown ([7]; 2.50 ppm): 75% | mortality at 2.5 ppm ([7]; Anopheles arabiensis, 24 h): 100% | Knockdown ([8]; 2.50 ppm): 91% | mortality at 2.5 ppm ([8]; Aedes aegypti, 24 h): 100% | mortality ([9]; HDPE, polymer 4 to 6 weeks old): 70% | knock-down ([9]; HDPE, polymer 4 to 6 weeks old): 100% | mortality ([9]; HDPE, polymer 6 to 8 weeks old): 97% | knock-down ([9]; HDPE, polymer 6 to 8 weeks old): 100% | mortality ([9]; LDPE, polymer 4 to 6 weeks old): 100% | knock-down ([9]; LDPE, polymer 4 to 6 weeks old): 100% | mortality ([9]; LDPE, polymer 6 to 8 weeks old): 100% | knock-down ([9]; LDPE, polymer 6 to 8 weeks old): 100% | mortality ([9]; PP, polymer 4 to 6 weeks old): 23% | knock-down ([9]; PP, polymer 4 to 6 weeks old): 100% | mortality ([9]; PP, polymer 6 to 8 weeks old): 67% | knock-down ([9]; PP, polymer 6 to 8 weeks old): 100% | mortality ([10]; HDPE): 97% | knock-down ([10]; HDPE): 100% | mortality ([10]; LDPE): 100% | knock-down ([10]; LDPE): 100% | mortality ([10]; PP): 80% | knock-down ([10]; PP): 87% | Knockdown (%) at 15 mins [11]: 50% | Knockdown (%) at 60 mins [11]: 99% | mortality at 20 ppm [11]: 85% | mortality at 25 ppm ([18]; Table B5b): 3% | mortality at 25 ppm ([18]; Table B5c): 4% | Knockdown (%) at 15 mins [12]: 97% | Knockdown (%) at 60 mins [12]: 100% | mortality at 20 ppm [12]: 100% | Knockdown (%) at 15 mins ([13]; 20 ppm, bottle, Kisumu sus): 100% | Knockdown (%) at 60 mins ([13]; 20 ppm, bottle, Kisumu sus): 100% | mortality at 20 ppm ([13]; 20 ppm, bottle, one hour exposure, after 24 hours, Kisumu sus): 100% | mortality at 25 ppm ([13]; Table B5b, after 24 hours, Kisumu sus): 99% | mortality at 25 ppm ([13]; Table B5c, after 24 hours, Kisumu sus): 100% | mortality at 25 ppm ([19]; Table B5b): 24% | mortality at 25 ppm ([19]; Table B5c): 46%
